Tests used:
[1] = Macroscopic pKa value of the compound; type: physicochemical
Mu-type opioid receptor [2] = biological target: T1, Mu-type opioid receptor (Rattus norvegicus, UniProt P33535); assay: Compound was evaluated for its ability to displace [3H]- CTOP (opioid receptor mu selective ligand)
[3] = biological target: T2, Delta-type opioid receptor (Rattus norvegicus, UniProt P33533); assay: Compound was evaluated for the binding affinity in comparison with [3H][p-Cl-Phe4]-DPDPE (opioid receptor delta selective ligand)
T2 sequence (P33533 whole entry): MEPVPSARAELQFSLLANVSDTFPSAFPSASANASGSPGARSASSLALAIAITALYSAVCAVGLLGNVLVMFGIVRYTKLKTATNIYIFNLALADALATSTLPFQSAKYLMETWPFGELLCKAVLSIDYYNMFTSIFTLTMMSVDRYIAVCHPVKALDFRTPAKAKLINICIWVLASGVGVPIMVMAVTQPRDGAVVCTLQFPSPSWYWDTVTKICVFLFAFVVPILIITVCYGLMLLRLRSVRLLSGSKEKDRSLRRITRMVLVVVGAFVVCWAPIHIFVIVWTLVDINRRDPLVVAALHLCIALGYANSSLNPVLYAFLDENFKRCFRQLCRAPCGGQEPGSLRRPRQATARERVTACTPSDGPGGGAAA

[4] = biological target: T3, Delta-type opioid receptor (Mus musculus, UniProt P32300); assay: Compound was evaluated for its inhibitory potency against opioid receptor delta of Mouse vas deferens; type: tissue-based
T3 sequence (P32300 whole entry): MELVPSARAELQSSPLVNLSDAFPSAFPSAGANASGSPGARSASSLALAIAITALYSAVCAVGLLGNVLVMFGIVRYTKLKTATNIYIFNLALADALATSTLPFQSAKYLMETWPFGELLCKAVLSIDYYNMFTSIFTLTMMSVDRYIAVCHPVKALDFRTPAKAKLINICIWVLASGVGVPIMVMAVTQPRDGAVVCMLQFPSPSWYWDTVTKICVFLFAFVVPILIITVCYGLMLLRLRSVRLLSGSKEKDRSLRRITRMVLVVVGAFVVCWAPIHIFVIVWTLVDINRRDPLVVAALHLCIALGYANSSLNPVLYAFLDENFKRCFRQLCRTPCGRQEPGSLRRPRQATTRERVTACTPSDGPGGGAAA

[5] = biological target: T2, Delta-type opioid receptor; assay: Compound was evaluated for the binding affinity in comparison with [3H]- DPDPE (opioid receptor delta selective ligand)
[6] = biological target: T3, Delta-type opioid receptor; assay: Compound was evaluated for […] at Opioid receptor delta 1
[7] = biological target: T2, Delta-type opioid receptor; assay: Compound was evaluated for the binding affinity in comparison with [3H][p-Cl-Phe4]-DPDPE (delta opioid receptor selective ligand)
Mu-type opioid receptor [8] = biological target: T1, Mu-type opioid receptor; assay: Compound was evaluated for its ability to displace [3H]- CTOP (mu opioid receptor selective ligand)
[9] = biological target: Delta-type opioid receptor (Homo sapiens) (UniProt P41143); assay: Compound was evaluated for the percentage of maximum inhibition at opioid receptor delta
Delta-type opioid receptor (Homo sapiens), sequence (P41143 whole entry): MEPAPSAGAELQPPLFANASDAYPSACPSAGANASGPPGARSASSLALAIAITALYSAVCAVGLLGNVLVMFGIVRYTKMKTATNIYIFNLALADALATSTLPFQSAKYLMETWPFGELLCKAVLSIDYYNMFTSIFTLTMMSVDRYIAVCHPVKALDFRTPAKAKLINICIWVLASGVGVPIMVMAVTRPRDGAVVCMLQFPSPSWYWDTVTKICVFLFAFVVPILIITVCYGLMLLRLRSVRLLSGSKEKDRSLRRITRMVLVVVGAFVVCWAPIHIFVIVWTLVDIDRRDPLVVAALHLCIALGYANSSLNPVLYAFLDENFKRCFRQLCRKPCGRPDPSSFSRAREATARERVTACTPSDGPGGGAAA

[10] = biological target: T3, Delta-type opioid receptor; assay: Compound was evaluated for its inhibitory potency against Opioid receptor delta 1 of Mouse vas deferens; type: tissue-based

T1 sequence (P33535 whole entry): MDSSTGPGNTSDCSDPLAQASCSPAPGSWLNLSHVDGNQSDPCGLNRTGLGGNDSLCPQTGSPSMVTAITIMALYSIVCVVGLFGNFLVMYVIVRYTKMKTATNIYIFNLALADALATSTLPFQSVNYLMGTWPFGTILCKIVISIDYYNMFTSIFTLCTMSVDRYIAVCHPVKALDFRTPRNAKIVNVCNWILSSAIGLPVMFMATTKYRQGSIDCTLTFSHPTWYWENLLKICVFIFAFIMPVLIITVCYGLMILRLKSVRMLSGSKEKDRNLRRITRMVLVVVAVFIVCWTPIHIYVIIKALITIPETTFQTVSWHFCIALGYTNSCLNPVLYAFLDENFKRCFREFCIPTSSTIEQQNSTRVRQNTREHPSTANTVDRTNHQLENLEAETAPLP

CC1(C)SSC(C)(C)[C@@H](NC(=O)[C@@H](N)Cc2ccc(O)c(I)c2)C(=O)NCC(=O)N[C@@H](Cc2ccccc2)C(=O)N[C@H]1C(=O)O
pKa [1]: 8.2

CC1(C)SSC(C)(C)[C@@H](NC(=O)[C@@H](N)Cc2ccc(O)c([N+](=O)[O-])c2)C(=O)NCC(=O)N[C@@H](Cc2ccccc2)C(=O)N[C@H]1C(=O)O
pKa [1]: 7.2

CC1(C)SSC(C)(C)[C@@H](NC(=O)[C@]2(N)CCC3C=C(O)C=CC3C2)C(=O)NCC(=O)N[C@@H](Cc2ccccc2)C(=O)N[C@H]1C(=O)O (stereo in doubt; 8) [listing 1 of 2 here]
IC50 (Mu-type opioid receptor [2]): 2820 nM
IC50 [3]: 24.5 nM
IC50 [4]: 137 nM

Cc1cc(O)ccc1C[C@H](N)C(=O)N[C@H]1C(=O)NCC(=O)N[C@@H](Cc2ccccc2)C(=O)N[C@@H](C(=O)O)C(C)(C)SSC1(C)C
IC50 (Mu-type opioid receptor [2]): 1170 nM
IC50 [4]: 4.52 nM
IC50 [5]: 0.89 nM

COc1cc(C[C@H](N)C(=O)N[C@H]2C(=O)NCC(=O)N[C@@H](Cc3ccccc3)C(=O)N[C@@H](C(=O)O)C(C)(C)SSC2(C)C)ccc1O
pKa [1]: 9.7

C[C@H](c1ccc(O)cc1)[C@H](N)C(=O)N[C@H]1C(=O)NCC(=O)N[C@@H](Cc2ccccc2)C(=O)N[C@@H](C(=O)O)C(C)(C)SSC1(C)C
IC50 [6]: 14.6 nM
IC50 [7]: 84.8 nM
IC50 (Mu-type opioid receptor [8]): > 20000 nM

CC1(C)SSC(C)(C)[C@@H](NC(=O)[C@]2(N)CCC3C=C(O)C=CC3C2)C(=O)NCC(=O)N[C@@H](Cc2ccccc2)C(=O)N[C@H]1C(=O)O (stereo in doubt; 8) [listing 2 of 2 here]
Emax [9]: 31%

Cc1cc(O)ccc1C[C@@H](N)C(=O)N[C@H]1C(=O)NCC(=O)N[C@@H](Cc2ccccc2)C(=O)N[C@@H](C(=O)O)C(C)(C)SSC1(C)C
IC50 [6]: 763 nM
IC50 [7]: 1130 nM
IC50 (Mu-type opioid receptor [8]): 16600 nM

C[C@H](c1ccc(O)cc1)[C@@H](N)C(=O)N[C@H]1C(=O)NCC(=O)N[C@@H](Cc2ccccc2)C(=O)N[C@@H](C(=O)O)C(C)(C)SSC1(C)C
IC50 [7]: 426 nM
IC50 (Mu-type opioid receptor [8]): 22800 nM
IC50 [10]: 20700 nM

CC1(C)SSC(C)(C)[C@@H](NC(=O)[C@]2(N)CCC3C=C(O)C=CC3C2)C(=O)NCC(=O)N[C@@H](Cc2ccccc2)C(=O)N[C@H]1C(=O)O (stereo in doubt; 9) [listing 1 of 2 here]
IC50 (Mu-type opioid receptor [2]): 1440 nM
IC50 [3]: 2.36 nM
IC50 [4]: 22 nM

CC1(C)SSC(C)(C)[C@@H](NC(=O)[C@]2(N)CCC3C=C(O)C=CC3C2)C(=O)NCC(=O)N[C@@H](Cc2ccccc2)C(=O)N[C@H]1C(=O)O (stereo in doubt; 9) [listing 2 of 2 here]
Emax [9]: 79%

C[C@@H](c1ccc(O)cc1)[C@H](N)C(=O)N[C@H]1C(=O)NCC(=O)N[C@@H](Cc2ccccc2)C(=O)N[C@@H](C(=O)O)C(C)(C)SSC1(C)C
IC50 [6]: 243 nM
IC50 [7]: 440 nM
IC50 (Mu-type opioid receptor [8]): 18600 nM

CC1(C)SSC(C)(C)[C@@H](NC(=O)[C@@H](N)Cc2ccc(O)c(N)c2)C(=O)NCC(=O)N[C@@H](Cc2ccccc2)C(=O)N[C@H]1C(=O)O
pKa [1]: 10

C[C@@H](c1ccc(O)cc1)[C@@H](N)C(=O)N[C@H]1C(=O)NCC(=O)N[C@@H](Cc2ccccc2)C(=O)N[C@@H](C(=O)O)C(C)(C)SSC1(C)C
IC50 [6]: 698 nM
IC50 [7]: 20000 nM
IC50 (Mu-type opioid receptor [8]): > 40000 nM
